ChEMBL document CHEMBL1131128, “Structure-based design of cathepsin K inhibitors containing a benzyloxy-substituted benzoyl peptidomimetic” (J Med Chem, 1998)

Assays:
[1] = target: T1, Cathepsin K (Homo sapiens) (UniProt P43235); assay: Second order rate constant was measured for the inhibition of Cathepsin K
T1 sequence (whole entry): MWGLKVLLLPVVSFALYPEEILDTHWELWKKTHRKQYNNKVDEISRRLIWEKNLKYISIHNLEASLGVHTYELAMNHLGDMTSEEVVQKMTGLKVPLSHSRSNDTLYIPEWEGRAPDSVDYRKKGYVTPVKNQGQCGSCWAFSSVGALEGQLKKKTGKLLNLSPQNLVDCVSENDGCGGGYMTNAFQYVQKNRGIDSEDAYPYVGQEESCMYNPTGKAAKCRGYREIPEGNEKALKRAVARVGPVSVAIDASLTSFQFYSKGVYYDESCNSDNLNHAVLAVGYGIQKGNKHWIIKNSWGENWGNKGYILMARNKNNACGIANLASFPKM

Cathepsin K = target: T2, Cathepsin K (Homo sapiens, UniProt P43235); assay: Relative binding affinity was measured for Cathepsin K; conditions: read-out: Ki app
T2 sequence (P43235 whole entry): T1 sequence (whole entry)

second-order inhibition rate constant (kobs/[I]) [1] [M⁻¹ s⁻¹] | Ki (Cathepsin K) [nM] | Structure (SMILES)
490000 | 3.4 | CC[C@H](NC(=O)OCc1ccccc1)C(=O)NNC(=O)NNC(=O)[C@H](CC(C)C)NC(=O)OCc1ccccc1
685000 | 1 | CC(C)C[C@H](NC(=O)OCc1ccccc1)C(=O)NNC(=O)NNC(=O)[C@H](C)NC(=O)OCc1ccccc1
3.1e+06 | 0.7 | CC(C)C[C@H](NC(=O)OCc1ccccc1)C(=O)NNC(=O)NNC(=O)[C@H](CC(C)C)NC(=O)OCc1ccccc1

The next lines start with the compound.

Structure (SMILES) | second-order inhibition rate constant (kobs/[I]) [1] [M⁻¹ s⁻¹] | Ki (Cathepsin K) [nM]
CC(C)C[C@H](NC(=O)OCc1ccccc1)C(=O)NNC(=O)NNC(=O)c1cccc(OCc2ccccc2)c1 | 224000 | 27
CC(C)C[C@H](NC(=O)OCc1ccccc1)C(=O)NNC(=O)NNC(=O)c1ccccc1 | 38000 | 120
CC(C)C[C@H](NC(=O)OCc1ccccc1)C(=O)NNC(=O)NNC(=O)c1ccccc1OCc1ccccc1 | 318000 | 12
CCC[C@H](NC(=O)OCc1ccccc1)C(=O)NNC(=O)NNC(=O)[C@H](CC(C)C)NC(=O)OCc1ccccc1 | 4e+06 | 0.8
CC(C)C[C@H](NC(=O)OCc1ccccc1)C(=O)NNC(=O)NNC(=O)c1ccc(OCc2ccccc2)cc1 | 44000 | 100
